Results: patent US20250084035A1, “POLYMORPHIC FORM OF MEISOINDIGO AND MODIFIED FORMULATION OF MEISOINDIGO” (STATIA BIOPHARMA INC., priority 2018, published 2025)

Key:
ulcerative colitis = experiment: Clinical trial in ulcerative colitis; assay type: in vivo, humans; settings: recent clinical trial
[1] = Solubility in solvents (descriptive); assay type: physicochemical
leukemia cells = settings: cited from earlier work
[2] = Particle size and distribution, Malvern Mastersizer 2000; assay type: physicochemical; settings: for Particle size d10 / Particle size d50 / Particle size d90: Crystal Form I, Malvern Mastersizer 2000; for Particle Size Distribution Ratio: calculated as (d90-d10)/d50
Experimental: Crystal Form I was analyzed for its particle size and distribution. Five batches were tested using a Malvern Mastersizer 2000 (MIIA14730, Malvern, UK).

Row | SMILES | Solubility ([1]; in acetone) | Solubility ([1]; in chloroform) | Solubility ([1]; in ethanol) | Solubility ([1]; in water) | Particle size d10 [2] [μm] | Particle size d50 [2] [μm] | Particle size d90 [2] [μm] | Particle Size Distribution Ratio [2] | Efficacy against ulcerative colitis (ulcerative colitis) | Side effects (ulcerative colitis) | Cell cycle effect (leukemia cells; leukemia cells) | Expression of oncogene c-myb (leukemia cells; leukemia cells) | Cell growth (leukemia cells; low concentrations, without a decrease in cell viability)
1 | CN1C(=O)/C(=C2/C(=O)Nc3ccccc32)c2ccccc21 [N-methylisoindigo] | sparingly soluble | sparingly soluble | sparingly soluble | slightly soluble |  |  |  |  | very effective | no significant side effects | arrests leukemia cells at G phase | inhibits | completely inhibited
2 | CN1C(=O)/C(=C2/C(=O)Nc3ccccc32)c2ccccc21 [NAT-1202, N-methylisoindigo] |  |  |  |  | 5.035 | 15.603 | 30.339 | 1.62 |  |  |  |  | 
3 | CN1C(=O)/C(=C2/C(=O)Nc3ccccc32)c2ccccc21 [NAT-0801, N-methylisoindigo] |  |  |  |  | 3.249 | 12.268 | 23.99 | 1.69 |  |  |  |  | 
4 | CN1C(=O)/C(=C2/C(=O)Nc3ccccc32)c2ccccc21 [NAT-0601, N-methylisoindigo] |  |  |  |  | 2.506 | 12.464 | 25.635 | 1.86 |  |  |  |  | 

The next lines start with results.

Row | Solubility ([1]; in acetone) | Solubility ([1]; in chloroform) | Solubility ([1]; in ethanol) | Solubility ([1]; in water) | Particle size d10 [2] [μm] | Particle size d50 [2] [μm] | Particle size d90 [2] [μm] | Particle Size Distribution Ratio [2] | SMILES | Efficacy against ulcerative colitis (ulcerative colitis) | Side effects (ulcerative colitis) | Cell cycle effect (leukemia cells; leukemia cells) | Expression of oncogene c-myb (leukemia cells; leukemia cells) | Cell growth (leukemia cells; low concentrations, without a decrease in cell viability)
5 |  |  |  |  | 3.599 | 13.301 | 26.897 | 1.75 | CN1C(=O)/C(=C2/C(=O)Nc3ccccc32)c2ccccc21 [NAT-1201, N-methylisoindigo] |  |  |  |  | 
6 |  |  |  |  | 5.295 | 15.674 | 30.015 | 1.58 | CN1C(=O)/C(=C2/C(=O)Nc3ccccc32)c2ccccc21 [NAT-1203, N-methylisoindigo] |  |  |  |  | 
